For 2 compounds, inhibition results are on record in US9670213B2, “Pteridine ketone derivative and applications thereof as EGFR, BLK, and FLT3 inhibitor” (EAST CHINA UNIVERSITY OF SCIENCE AND TECHNOLOGY, priority 2012, dated 2017).

The assay deals with BRAF (Homo sapiens (Human), UniProt P15056). Kind of assay: Kinase selectivity analysis (BRAF analysis). Particulars: for inhibition at 1 µM: read-out: % inhibition (1 μM), 1 μM; for inhibition at 10 µM: read-out: % inhibition (10 μM), 10 μM. It counts as biochemical. On the procedure: Kinase selectivity analysis: kinase selectivity experiment was performed by Shanghai ChemPartner using Caliper assay screening platform. All of kinases and other materials were purchased from commercial companies.
Chain of BRAF (P15056 whole entry, species assumed): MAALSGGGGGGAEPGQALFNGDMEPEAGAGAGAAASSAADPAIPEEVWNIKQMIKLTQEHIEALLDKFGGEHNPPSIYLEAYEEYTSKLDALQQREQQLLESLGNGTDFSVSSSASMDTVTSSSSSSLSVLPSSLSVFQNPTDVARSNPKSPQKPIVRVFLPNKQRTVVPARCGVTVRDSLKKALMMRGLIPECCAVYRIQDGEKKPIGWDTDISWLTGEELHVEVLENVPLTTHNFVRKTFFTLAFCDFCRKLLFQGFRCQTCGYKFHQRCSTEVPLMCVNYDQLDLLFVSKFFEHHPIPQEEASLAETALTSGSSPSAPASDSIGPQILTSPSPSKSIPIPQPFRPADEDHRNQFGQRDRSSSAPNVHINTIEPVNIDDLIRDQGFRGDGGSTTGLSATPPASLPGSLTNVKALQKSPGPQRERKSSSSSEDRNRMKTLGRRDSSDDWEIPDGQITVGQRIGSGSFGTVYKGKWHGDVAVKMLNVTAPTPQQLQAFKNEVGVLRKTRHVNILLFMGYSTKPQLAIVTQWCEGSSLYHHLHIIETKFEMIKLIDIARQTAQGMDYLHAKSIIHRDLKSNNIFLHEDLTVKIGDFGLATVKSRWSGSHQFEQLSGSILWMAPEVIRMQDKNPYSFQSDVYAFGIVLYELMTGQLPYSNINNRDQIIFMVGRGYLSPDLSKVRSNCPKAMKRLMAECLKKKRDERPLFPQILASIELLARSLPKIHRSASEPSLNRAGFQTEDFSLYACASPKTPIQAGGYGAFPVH
1. Preparation of 1× Kinase Buffer: 50 mM HEPES, pH 7.5, 10 mM MgCl2, 1 mM EGTA, 0.01% BRIJ-35.
2. Preparation of compounds for BRAF kinase test: 1) serial dilution of compound and preparation of stock solution plate. The compound was diluted in 100% DMSO to a concentration, which was 100 times of the highest concentration used in reaction, and 100 μL of the compound solution as said above was transferred into wells of 96-well plate. 30 μL of compound solution was transferred into 60 μL of 100% DMSO in the adjacent well, and the above operation was repeated for sequentially diluting the compound. 100 μL of 100% DMSO was added into two blank wells as no-compound and no-enzyme control, the plate was marked as stock solution plate. 2) Preparation of temporary plate. 4 μL of compound solution from the stock solution plate was transferred to another 96-well plate, 96 μL of 1× kinase buffer was added into each well, and the temporary plate was placed on a shaker and shaken for 10 mins for uniformly mixing the compound. 3) Preparation of assay plate. 2.5 μL of solution from each well of the 96-well temporary plate was added into a 384-well plate, and the experiment was independently repeated.
3. Kinase BRAF reaction: 1) Preparation of 2× kinase solution. BRAF solution was prepared in 1× kinase buffer, the concentration of which was 2 times of the final concentration in the test. 5 μL of kinase solution was added into each well of the assay plate (except for control well, into which 5 μL of 1× kinase buffer was added), and the assay plate was shaken. 2) Preparation of 4× substrate solution. Fluorescein-MAP2K1, ATP substrate solution was prepared in 1× kinase buffer, the concentration of which was 4 times of the final concentration in the test. 2.5 μL of substrate solution was added into each well of the assay plate to start the reaction, and the assay plate was shaken. 3) The kinase reaction was conducted by incubating at room temperature for 1 hour.
4. Kinase assay. Test solution was prepared in antibody dilution buffer, the concentration of which was 2 times of the following final concentration: antibody 2 nM, EDTA […]. 10 μL of test solution was added into each well of the assay plate to quench the assay. […]
5. Read data: the data was read on Envision (excitation at 340 nm, emission at 520 nm, […]).
6. […] The rate of RFU […] was calculated and converted into inhibition rate % Inhibition rate %=(maximum−rate of sample)/(maximum−minimum)*100, wherein “maximum” represents DMSO control rate, and “minimum” represents the no-enzyme control rate. […]

Structures are written as SMILES.

In general, inhibition refers to the change of the read-out against control, counted positive when it falls.

Regarding `C=CC(=O)Nc1cccc(-n2c(=O)cnc3cnc(Nc4ccc(N5CCN(C)CC5)cc4)nc32)c1` [Compound 020, N-(3-(2-(4-(4-methyl-1-piperazinyl)-phenylamino)-7-oxo-8(7H)-pteridin-yl)phenyl) acrylamide], the inhibition at 1 µM was -7% and the inhibition at 10 µM was 21%.

As to `C=CC(=O)Nc1cccc(-n2c(=O)cnc3cnc(Nc4ccc(N5CCN(C)CC5)cc4OC)nc32)c1` [Compound 032, N-(3-(2-(2-methoxy-4-(4-methyl-1-piperazinyl)-phenylamino)-7-oxo-8(7H)-pteridin-yl)phenyl)acrylamide], the inhibition at 1 µM was 0.35% and the inhibition at 10 µM was -5.2%.
